In patent US11292801B2, “Calpain modulators and therapeutic uses thereof” (Blade Therapeutics, Inc., priority 2016, dated 2022) one finds IC50 data, which are given here for 16 compounds.

For one assay, the target named is T1, Human Calpain 1/NS1 (Homo sapiens, UniProt P07384).
T1 sequence (P07384 1-714): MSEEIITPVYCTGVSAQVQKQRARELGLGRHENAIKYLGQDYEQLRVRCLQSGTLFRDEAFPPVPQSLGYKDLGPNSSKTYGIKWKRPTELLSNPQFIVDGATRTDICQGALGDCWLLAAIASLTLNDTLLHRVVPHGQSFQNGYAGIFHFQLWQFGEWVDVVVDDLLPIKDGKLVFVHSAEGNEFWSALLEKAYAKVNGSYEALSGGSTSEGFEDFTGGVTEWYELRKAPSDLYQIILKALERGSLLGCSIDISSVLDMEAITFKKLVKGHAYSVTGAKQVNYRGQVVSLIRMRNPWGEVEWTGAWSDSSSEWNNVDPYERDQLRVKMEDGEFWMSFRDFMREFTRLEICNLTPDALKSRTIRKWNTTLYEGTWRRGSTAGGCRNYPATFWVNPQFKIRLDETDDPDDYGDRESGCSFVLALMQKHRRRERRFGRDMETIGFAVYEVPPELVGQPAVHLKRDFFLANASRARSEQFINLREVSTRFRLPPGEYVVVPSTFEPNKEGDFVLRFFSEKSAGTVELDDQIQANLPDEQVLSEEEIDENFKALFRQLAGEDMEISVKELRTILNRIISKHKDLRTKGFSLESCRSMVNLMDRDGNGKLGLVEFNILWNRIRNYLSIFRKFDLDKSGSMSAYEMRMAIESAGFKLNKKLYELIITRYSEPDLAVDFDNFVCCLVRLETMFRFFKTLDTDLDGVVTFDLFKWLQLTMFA
T1 sequence (P04632 1-268 partner): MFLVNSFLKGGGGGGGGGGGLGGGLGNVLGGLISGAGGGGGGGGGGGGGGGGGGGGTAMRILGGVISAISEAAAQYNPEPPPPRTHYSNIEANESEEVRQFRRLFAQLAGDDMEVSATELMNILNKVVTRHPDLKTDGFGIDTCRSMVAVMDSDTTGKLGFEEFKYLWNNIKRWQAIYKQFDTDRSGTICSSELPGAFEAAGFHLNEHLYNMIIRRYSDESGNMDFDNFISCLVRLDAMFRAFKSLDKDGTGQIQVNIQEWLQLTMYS
Put plainly: Biochemical inhibition of calpain 1, continuous fluorescence (FRET substrate) assay. The settings on record: mean, read-out: Human Calpain 1/NS1 IC50 (nM)_MEAN. The gist of the method:
(§1)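 Continuous FRET assay with 5-FAM/QXL520 peptide substrate in 50 mM Tris pH ~7.5, 100 mM NaCl, 1 mM DTT. Enzyme preincubated with inhibitor at 25C; reaction started with substrate plus CaCl2, read at 490/520 nm for 10 min. Rates from slopes over 1-5 min, IC50 from 4-parameter logistic fit.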

The next assay deals with T2, Human Calpain 2/NS1 (Homo sapiens, UniProt P17655).
T2 sequence (P17655 1-700): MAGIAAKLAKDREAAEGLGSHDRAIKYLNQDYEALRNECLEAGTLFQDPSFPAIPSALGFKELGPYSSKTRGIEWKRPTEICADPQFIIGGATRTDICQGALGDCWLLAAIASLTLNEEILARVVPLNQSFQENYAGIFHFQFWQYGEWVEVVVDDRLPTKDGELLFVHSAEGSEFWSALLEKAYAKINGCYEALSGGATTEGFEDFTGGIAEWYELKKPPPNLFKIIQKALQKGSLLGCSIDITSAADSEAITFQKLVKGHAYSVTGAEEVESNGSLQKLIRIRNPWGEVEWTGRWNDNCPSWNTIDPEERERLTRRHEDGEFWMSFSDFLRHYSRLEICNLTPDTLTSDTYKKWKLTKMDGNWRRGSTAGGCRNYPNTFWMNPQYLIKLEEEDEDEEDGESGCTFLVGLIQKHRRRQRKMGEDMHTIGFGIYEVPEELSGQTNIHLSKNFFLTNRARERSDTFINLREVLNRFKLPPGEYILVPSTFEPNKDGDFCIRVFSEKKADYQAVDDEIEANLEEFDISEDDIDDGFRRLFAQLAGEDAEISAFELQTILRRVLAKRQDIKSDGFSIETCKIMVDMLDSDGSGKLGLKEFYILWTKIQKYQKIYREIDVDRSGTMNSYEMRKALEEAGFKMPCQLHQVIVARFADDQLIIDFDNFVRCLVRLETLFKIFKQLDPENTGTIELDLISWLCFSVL
T2 sequence (P04632 1-268 partner): T1 sequence (P04632 1-268 partner)
Description: Biochemical inhibition of calpain 2, continuous fluorescence (FRET substrate) assay. The settings on record: mean, read-out: Human Calpain 2/NS1 IC50 (nM)_MEAN. In short, it runs like this: as §1

The next assay concerns the target T3, Human Calpain 9/NS1 (Homo sapiens, UniProt O14815).
T3 sequence (O14815 1-690): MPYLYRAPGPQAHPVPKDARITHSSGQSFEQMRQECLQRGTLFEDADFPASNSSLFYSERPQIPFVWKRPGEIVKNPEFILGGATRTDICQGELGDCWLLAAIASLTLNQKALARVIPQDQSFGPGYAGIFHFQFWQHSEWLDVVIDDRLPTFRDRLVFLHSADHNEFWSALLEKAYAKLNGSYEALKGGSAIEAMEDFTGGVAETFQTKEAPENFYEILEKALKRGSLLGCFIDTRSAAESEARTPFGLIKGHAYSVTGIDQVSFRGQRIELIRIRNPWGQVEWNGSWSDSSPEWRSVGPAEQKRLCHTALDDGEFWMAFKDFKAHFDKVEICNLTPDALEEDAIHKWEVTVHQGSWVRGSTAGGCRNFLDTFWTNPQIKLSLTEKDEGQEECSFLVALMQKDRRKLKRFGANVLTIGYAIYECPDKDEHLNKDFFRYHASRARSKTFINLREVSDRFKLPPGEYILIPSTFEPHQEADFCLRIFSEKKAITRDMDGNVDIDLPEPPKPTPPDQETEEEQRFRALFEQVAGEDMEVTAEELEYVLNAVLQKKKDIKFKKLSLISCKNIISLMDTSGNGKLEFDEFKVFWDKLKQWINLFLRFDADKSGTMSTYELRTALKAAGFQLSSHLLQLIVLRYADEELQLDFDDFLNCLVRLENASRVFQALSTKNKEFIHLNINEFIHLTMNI
T3 sequence (P04632 1-268 partner): T1 sequence (P04632 1-268 partner)
Put plainly: Biochemical inhibition of calpain 9, continuous fluorescence (FRET substrate) assay. The settings on record: mean, read-out: Human Calpain 9/NS1 IC50 (nM)_MEAN. In short, it runs like this: as §1

On to `O=C(NCCc1ccccc1)C(=O)C1CCCCOCCOCc2ccccc2C(=O)N1` (stereo not drawn) [Compound 104, 2-Oxo-2-(12-oxo-1,3,4,6,7,8,9,10,11,12-decahydrobenzo[f][1,4]dioxa[9]aza-cyclotetradecin-10-yl)-N-phenethylacetamide], for which the IC50 was more than 10000 nM on Human Calpain 1/NS1, 3000 to 10000 nM on Human Calpain 2/NS1 and less than 3000 nM on Human Calpain 9/NS1.
As to `O=C[C@@H]1CC=CCOCCOc2ccccc2C(=O)N1` [Compound 18, (S)-11-Oxo-2,3,8,9,10,11-hexahydro-5h-benzo[e][1,4]dioxa[8]azacyclotridecine-9-carbaldehyde], the IC50 at Human Calpain 1/NS1 is more than 10000 nM; at Human Calpain 2/NS1 it was more than 10000 nM; at Human Calpain 9/NS1, 3000 to 10000 nM.
With `O=C(NC1CC1)C(=O)[C@@H]1Cc2ccc(cc2)OCCCCOc2ccc3c(cnn3-c3ncccc3C(=O)N1)c2` [Compound 68, N-cyclopropyl-2-oxo-2-((5S)-3-oxo-1^1H-8,13-dioxa-4-aza-1(1,5)-indazola-2(2,3)-pyridina-7(1,4)-benzenacyclotridecaphane-5-yl)acetamide], the IC50 on Human Calpain 1/NS1, at Human Calpain 2/NS1 and at Human Calpain 9/NS1 was less than 3000 nM throughout.
On to `CCNC(=O)C(=O)[C@@H]1CCCCCCCCCc2ccccc2C(=O)N1` [Compound 27, (S)—N-ethyl-2-oxo-2-(1-oxo-1,2,3,4,5,6,7,8,9,10,11,12-dodecahydrobenzo[c][1]azacyclotetradecin-3-yl)acetamide], for which the IC50 at Human Calpain 1/NS1, at Human Calpain 2/NS1 and at Human Calpain 9/NS1 was more than 10000 nM in each case.
For `O=C[C@@H]1C/C=C/CCCOc2ccccc2C(=O)N1` [Compound 21, (S)-10-Oxo-3,4,7,8,9,10-hexahydro-2h-benzo[b][1]oxa[5]aza-cyclododecine-8-carbaldehyde], the IC50 at Human Calpain 1/NS1 is more than 10000 nM; at Human Calpain 2/NS1, 3000 to 10000 nM; at Human Calpain 9/NS1, 3000 to 10000 nM.
Regarding `O=C[C@@H]1CCCCCOc2ccc(F)c(c2)-c2ccccc2C(=O)N1` [Compound 146, (S)-2^6-fluoro-11-oxo-3-oxa-10-aza-1(1,2),2(1,3)-dibenzenacycloundecaphane-9-carbaldehyde], the IC50 at Human Calpain 1/NS1, on Human Calpain 2/NS1 and at Human Calpain 9/NS1 was less than 3000 nM throughout.
Regarding `C[C@H](NC(=O)C(=O)C1CCCCOCCOCc2ccccc2C(=O)N1)c1cccnc1` (stereo partly drawn) [Compound 126, 2-Oxo-2-(12-oxo-1,3,4,6,7,8,9,10,11,12-decahydrobenzo[f][1,4]dioxa[9]aza-cyclotetradecin-10-yl)-N—((S)-1-(pyridin-3-yl)ethyl)acetamide], the IC50 at Human Calpain 1/NS1, on Human Calpain 2/NS1 and on Human Calpain 9/NS1 was more than 10000 nM in each case.
On to `CCNC(=O)C(=O)[C@@H]1Cc2ccc(cc2)OC/C=C/COc2cccc(c2)-c2ccn(n2)-c2ncccc2C(=O)N1` [Compound 65, N-ethyl-2-oxo-2-((2^2E,6S,11E)-4-oxo-2^1H-9,14-dioxa-5-aza-3(2,3)-pyridina-2(3,1)-pyrazola-1(1,3),8(1,4)-dibenzenacyclotetradecaphan-11-en-6-yl)acetamide], for which the IC50 on Human Calpain 1/NS1, on Human Calpain 2/NS1 and at Human Calpain 9/NS1 was less than 3000 nM in each case.
Take `NC(=O)C(=O)[C@@H]1C/C=C/CCOc2ccnc(n2)-c2ccccc2C(=O)N1` [Compound 137, (S,E)-2-oxo-2-(3-oxo-11-oxa-4-aza-1(2,4)-pyrimidina-2(1,2)-benzenacycloundecaphan-7-en-5-yl)acetamide]: the IC50 on Human Calpain 1/NS1, on Human Calpain 2/NS1 and at Human Calpain 9/NS1 was less than 3000 nM throughout.
Consider `CCCNC(=O)C(=O)C1CCCCOCCOCc2ccccc2C(=O)N1` (stereo not drawn) [Compound 91, 2-Oxo-2-(12-oxo-1,3,4,6,7,8,9,10,11,12-decahydrobenzo[f][1,4]dioxa[9]azacyclotetradecin-10-yl)-N-propylacetamide], for which the IC50 on Human Calpain 1/NS1, on Human Calpain 2/NS1 and on Human Calpain 9/NS1 was more than 10000 nM throughout.
Turning to `O=C[C@@H]1Cc2ccc(cc2)OC/C=C/COc2cccc(c2)-c2ccn(n2)-c2ncccc2C(=O)N1` [Compound 44, (2^2E,6S,11E)-4-oxo-2^1H-9,14-dioxa-5-aza-3(2,3)-pyridina-2(3,1)-pyrazola-1(1,3),8(1,4)-dibenzenacyclotetradecaphan-11-ene-6-carbaldehyde], the IC50 at Human Calpain 1/NS1, on Human Calpain 2/NS1 and on Human Calpain 9/NS1 was less than 3000 nM throughout.
As to `O=C[C@@H]1C/C=C/CCCCCCCc2ccccc2C(=O)N1` [Compound 23, (S,E)-1-Oxo-2,3,4,7,8,9,10,11,12,13-decahydro-1h-benzo[c][1]aza-cyclopentadecine-3-carbaldehyde], the IC50 on Human Calpain 1/NS1, at Human Calpain 2/NS1 and at Human Calpain 9/NS1 was less than 3000 nM in each case.
In the case of `O=C[C@@H]1CCCCOCCOCc2ccccc2C(=O)N1` [Compound 43, (S)-12-Oxo-1,3,4,6,7,8,9,10,11,12-decahydrobenzo[f][1,4]dioxa[9]aza-cyclotetradecine-10-carbaldehyde], the IC50 at Human Calpain 1/NS1 was more than 10000 nM; on Human Calpain 2/NS1, less than 3000 nM; at Human Calpain 9/NS1, less than 3000 nM.
Take `O=C(NCc1ccccc1)C(=O)[C@@H]1CC=CCCCCOc2ccccc2C(=O)N1` [Compound 7, (S)—N-benzyl-2-oxo-2-(11-oxo-2,3,4,5,8,9,10,11-octahydrobenzo[b][1]oxa[5]azacyclotridecin-9-yl)acetamide]: the IC50 on Human Calpain 1/NS1 was more than 10000 nM; at Human Calpain 2/NS1 it was more than 10000 nM; on Human Calpain 9/NS1, 3000 to 10000 nM.
Turning to `O=C[C@@H]1CC=CCOCCn2ccc3cccc(c32)C(=O)N1` [Compound 9], the IC50 on Human Calpain 1/NS1 was more than 10000 nM; on Human Calpain 2/NS1, less than 3000 nM; on Human Calpain 9/NS1, less than 3000 nM.
For the compound `O=C(NCc1cccc(F)c1)C(=O)C1CCCCOCCOCc2ccccc2C(=O)N1` (stereo not drawn) [Compound 106, N-(3-fluorobenzyl)-2-oxo-2-(12-oxo-1,3,4,6,7,8,9,10,11,12-decahydrobenzo[f][1,4]dioxa[9]azacyclotetradecin-10-yl)acetamide], the IC50 on Human Calpain 1/NS1 is more than 10000 nM; at Human Calpain 2/NS1 it was 3000 to 10000 nM; on Human Calpain 9/NS1, less than 3000 nM.
